From ChEMBL document CHEMBL1201862, “PubChem BioAssay data set” (2004)
Calls of active or inactive are those of the source.

Legend:
[1] = biological target: T1, Melanin-concentrating hormone receptor 1 (Homo sapiens, UniProt Q99705); test: Fluorescence-based counterscreen for antagonists of the G-protein coupled receptor 7 (GPR7): cell-based high throughput dose response assay to identify antagonists of the melanin-concentrating hormone receptor 1 (MCHR1).; format: functional
[2] = biological target: Neuropeptides B/W receptor type 1 (Homo sapiens, UniProt P48145); test: Fluorescence-based dose response cell-based high throughput screening assay to identify antagonists of the G-protein coupled receptor 7 (GPR7). [Related pubchem assays: 1952 (Screening assay (GPR7 antagonists).), 1880 (Summary AID.)]; format: functional
[3] = biological target: T2, Dual specificity protein phosphatase 3 (Homo sapiens, UniProt P51452); test: VHR1 inhibitor Ki determination, SAR follow-up, biochemical, colorimetric (AID 2004)
T2 sequence (P51452 whole entry): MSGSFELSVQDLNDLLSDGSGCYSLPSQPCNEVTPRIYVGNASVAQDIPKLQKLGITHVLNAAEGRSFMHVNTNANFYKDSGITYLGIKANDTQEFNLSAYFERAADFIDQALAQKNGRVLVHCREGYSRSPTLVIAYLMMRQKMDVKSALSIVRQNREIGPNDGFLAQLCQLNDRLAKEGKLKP

[4] = AlphaScreen signal interference compounds, dose response, artefact control for ARNT-TACC3 interaction inhibitor project, biochemical, luminescence, cherry-pick (AID 651705); format: functional;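 further: AlphaScreen bead proximity signal that flags compounds interfering with the detection technology; potency reflects signal decrease which marks the compound as an assay artifact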
[5] = biological target: Serine/threonine-protein phosphatase PP1-alpha catalytic subunit (Homo sapiens, UniProt P62136); test: PP1 phosphatase inhibitors, dose response, biochemical, fluorescence (AID 2403);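 further: phosphatase turnover of OMFP into fluorescent 3-O-methylfluorescein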
Sequence of Serine/threonine-protein phosphatase PP1-alpha catalytic subunit (P62136 whole entry): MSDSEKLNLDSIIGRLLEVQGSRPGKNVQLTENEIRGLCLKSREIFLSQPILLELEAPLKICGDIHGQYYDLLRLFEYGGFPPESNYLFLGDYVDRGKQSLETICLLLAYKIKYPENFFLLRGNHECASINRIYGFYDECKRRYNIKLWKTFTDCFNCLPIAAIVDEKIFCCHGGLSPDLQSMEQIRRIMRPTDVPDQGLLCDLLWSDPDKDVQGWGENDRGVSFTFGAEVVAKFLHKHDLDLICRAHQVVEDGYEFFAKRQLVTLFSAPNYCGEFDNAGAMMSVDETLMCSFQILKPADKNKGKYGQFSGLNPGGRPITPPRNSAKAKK

[6] = biological target: T3, Serine/threonine-protein phosphatase (Homo sapiens, UniProt Q9BPW0); test: Counterscreen for inhibitors of PP1: fluorescence-based biochemical high throughput dose response assay to identify inhibitors of Protein Phosphatase 5 (PP5). [Related pubchem assays: 2034 (Summary (PP5 inhibitors)), 1987 (PP5 inhibitors in singlate), 2235 (PP1 inhibitors in singlate)]
T3 sequence (Q9BPW0 whole entry): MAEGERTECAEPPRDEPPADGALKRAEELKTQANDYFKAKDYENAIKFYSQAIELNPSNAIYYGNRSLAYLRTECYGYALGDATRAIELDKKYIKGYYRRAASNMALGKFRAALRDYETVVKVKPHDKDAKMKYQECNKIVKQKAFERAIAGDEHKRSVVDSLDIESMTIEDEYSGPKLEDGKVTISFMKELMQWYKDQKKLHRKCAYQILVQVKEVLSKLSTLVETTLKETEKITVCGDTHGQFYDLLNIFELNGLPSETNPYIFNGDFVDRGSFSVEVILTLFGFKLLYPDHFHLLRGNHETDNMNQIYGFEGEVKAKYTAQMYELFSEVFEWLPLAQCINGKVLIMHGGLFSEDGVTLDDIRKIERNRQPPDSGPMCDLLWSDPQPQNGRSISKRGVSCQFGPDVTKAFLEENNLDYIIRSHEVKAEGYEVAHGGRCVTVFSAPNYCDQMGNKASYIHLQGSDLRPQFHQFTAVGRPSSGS

[7] = tested on: Staphylococcus aureus; test: Inhibitors of Bacterial Quorum Sensing Structure Activity Relationship (SAR) Analysis: Dose Response Assay. [Related pubchem assays: 700, 527 ]; format: functional, organism-based
[8] = biological target: T1, Melanin-concentrating hormone receptor 1; test: Late-stage fluorescence-based counterscreen for antagonists of the G-protein coupled receptor 7 (GPR7): cell-based dose response assay to identify antagonists of the melanin-concentrating hormone receptor 1 (MCHR1). [Related pubchem assays (depositor defined):AID1861, AID1880, AID1952, AID2148, AID2251, AID2257, AID485339]; format: functional
[9] = biological target: T4, Tyrosine-protein phosphatase non-receptor type 7 (Homo sapiens, UniProt P35236); test: redox-dependent HePTP inhibition, mechanism study, biochemical, fluorescence (AID 2068); format: functional
T4 sequence (P35236 whole entry): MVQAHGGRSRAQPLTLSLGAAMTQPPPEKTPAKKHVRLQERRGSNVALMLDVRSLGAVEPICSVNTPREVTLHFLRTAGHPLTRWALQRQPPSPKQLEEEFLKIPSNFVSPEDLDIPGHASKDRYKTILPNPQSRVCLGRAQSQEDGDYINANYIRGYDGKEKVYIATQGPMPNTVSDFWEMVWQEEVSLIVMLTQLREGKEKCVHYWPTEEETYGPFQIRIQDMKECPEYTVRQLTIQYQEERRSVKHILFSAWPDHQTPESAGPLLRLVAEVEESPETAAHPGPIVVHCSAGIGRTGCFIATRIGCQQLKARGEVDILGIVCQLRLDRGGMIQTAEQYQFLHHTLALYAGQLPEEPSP

[10] = biological target: T5, Dual specificity protein phosphatase 6 (Rattus norvegicus, UniProt Q64346); format: functional;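 further: confirmatory in vitro dose-response testing of MKP-3 inhibition; recombinant His-tagged MKP-3 made in E. coli BL21 with OMFP substrate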
T5 sequence (Q64346 whole entry): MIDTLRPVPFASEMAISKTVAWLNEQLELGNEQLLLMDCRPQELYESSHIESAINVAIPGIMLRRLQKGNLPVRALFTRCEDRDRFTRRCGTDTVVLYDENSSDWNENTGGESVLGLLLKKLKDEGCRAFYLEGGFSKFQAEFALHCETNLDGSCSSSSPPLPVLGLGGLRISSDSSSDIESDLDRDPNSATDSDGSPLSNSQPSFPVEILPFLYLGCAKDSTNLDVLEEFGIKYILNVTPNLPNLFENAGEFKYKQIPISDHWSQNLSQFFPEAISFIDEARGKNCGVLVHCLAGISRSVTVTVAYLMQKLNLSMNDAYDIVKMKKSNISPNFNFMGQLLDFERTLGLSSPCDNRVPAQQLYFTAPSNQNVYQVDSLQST

[11] = biological target: T6, Tyrosine-protein phosphatase non-receptor type 22 (Homo sapiens, UniProt Q9Y2R2); test: LYP (PTPN22) phosphatase inhibitor potency, SAR follow-up, biochemical, pCAP fluorogenic substrate, fluorescence, set 3 (AID 449727); format: functional
T6 sequence (Q9Y2R2 whole entry): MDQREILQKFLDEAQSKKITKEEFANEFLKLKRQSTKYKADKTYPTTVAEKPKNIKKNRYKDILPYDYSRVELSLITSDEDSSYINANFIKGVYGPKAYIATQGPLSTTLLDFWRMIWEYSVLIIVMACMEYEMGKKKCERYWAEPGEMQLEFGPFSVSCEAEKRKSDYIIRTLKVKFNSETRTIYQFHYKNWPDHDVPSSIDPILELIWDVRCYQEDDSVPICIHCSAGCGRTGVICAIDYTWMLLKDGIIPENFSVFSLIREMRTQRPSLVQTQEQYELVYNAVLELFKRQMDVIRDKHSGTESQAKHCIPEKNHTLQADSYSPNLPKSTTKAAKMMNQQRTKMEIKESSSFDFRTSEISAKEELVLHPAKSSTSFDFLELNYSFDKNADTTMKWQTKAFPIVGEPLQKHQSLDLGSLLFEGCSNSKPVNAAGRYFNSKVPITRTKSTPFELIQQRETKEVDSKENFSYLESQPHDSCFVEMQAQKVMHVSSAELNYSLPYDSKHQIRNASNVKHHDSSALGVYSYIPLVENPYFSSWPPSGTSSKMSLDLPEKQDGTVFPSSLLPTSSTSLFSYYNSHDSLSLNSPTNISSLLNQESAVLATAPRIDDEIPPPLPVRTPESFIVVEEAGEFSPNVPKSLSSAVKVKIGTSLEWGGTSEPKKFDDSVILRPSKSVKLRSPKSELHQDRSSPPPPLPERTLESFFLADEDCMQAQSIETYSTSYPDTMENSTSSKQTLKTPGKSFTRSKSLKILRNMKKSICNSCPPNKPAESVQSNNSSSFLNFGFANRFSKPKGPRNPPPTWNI

[12] = biological target: Tyrosine-protein phosphatase non-receptor type 12 (Homo sapiens, UniProt Q05209); test: SAR Selectivity Analysis of small molecule inhibitors of PEST using pCAP in a fluorescence assay. [Related pubchem assays (depositor defined):AID1779, AID1784, AID2135]; format: functional
Sequence of Tyrosine-protein phosphatase non-receptor type 12 (Q05209 whole entry): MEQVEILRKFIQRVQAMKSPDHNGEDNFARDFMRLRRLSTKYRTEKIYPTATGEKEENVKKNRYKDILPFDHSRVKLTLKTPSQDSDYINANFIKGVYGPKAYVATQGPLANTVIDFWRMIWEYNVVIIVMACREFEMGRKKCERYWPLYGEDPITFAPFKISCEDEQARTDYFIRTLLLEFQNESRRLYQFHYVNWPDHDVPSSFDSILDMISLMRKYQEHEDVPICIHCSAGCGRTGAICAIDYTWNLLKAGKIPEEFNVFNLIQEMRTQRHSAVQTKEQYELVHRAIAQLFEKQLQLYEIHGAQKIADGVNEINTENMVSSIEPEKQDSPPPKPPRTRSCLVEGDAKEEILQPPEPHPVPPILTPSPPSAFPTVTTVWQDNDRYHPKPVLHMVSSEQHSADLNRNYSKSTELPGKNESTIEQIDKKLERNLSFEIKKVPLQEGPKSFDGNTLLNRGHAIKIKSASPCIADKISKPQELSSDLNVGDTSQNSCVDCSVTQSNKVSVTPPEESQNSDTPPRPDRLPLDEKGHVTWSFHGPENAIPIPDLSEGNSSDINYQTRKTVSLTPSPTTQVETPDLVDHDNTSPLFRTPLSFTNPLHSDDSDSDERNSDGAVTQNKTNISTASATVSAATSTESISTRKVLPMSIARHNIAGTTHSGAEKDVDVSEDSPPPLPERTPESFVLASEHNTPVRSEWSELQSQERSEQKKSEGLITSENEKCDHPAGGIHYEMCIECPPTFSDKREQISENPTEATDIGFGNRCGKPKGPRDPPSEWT

[13] = biological target: T6, Tyrosine-protein phosphatase non-receptor type 22; test: SAR LYP1 Fluorescent Assay using OMFP substrate for In Vitro dose response studies - Set 3. [Related pubchem assays (depositor defined):AID1779, AID1784, AID2140, AID2686]; format: functional
[14] = biological target: T2, Dual specificity protein phosphatase 3; test: SAR VHR1 Fluorescent Assay for In Vitro dose response studies Set 2. [Related pubchem assays (depositor defined):AID1654, AID1661, AID1878]; format: functional
[15] = biological target: T4, Tyrosine-protein phosphatase non-receptor type 7; test: HePTP (PTPN7) phosphatase inhibitor potency, SAR follow-up, biochemical, set 2 (AID 449736); format: functional
[16] = biological target: T7, Heat shock 70 kDa protein 1A (Homo sapiens, UniProt P0DMV8); test: Hsp70 inhibitors, biochemical, TR-FRET (AID 786)
T7 sequence (P0DMV8 whole entry): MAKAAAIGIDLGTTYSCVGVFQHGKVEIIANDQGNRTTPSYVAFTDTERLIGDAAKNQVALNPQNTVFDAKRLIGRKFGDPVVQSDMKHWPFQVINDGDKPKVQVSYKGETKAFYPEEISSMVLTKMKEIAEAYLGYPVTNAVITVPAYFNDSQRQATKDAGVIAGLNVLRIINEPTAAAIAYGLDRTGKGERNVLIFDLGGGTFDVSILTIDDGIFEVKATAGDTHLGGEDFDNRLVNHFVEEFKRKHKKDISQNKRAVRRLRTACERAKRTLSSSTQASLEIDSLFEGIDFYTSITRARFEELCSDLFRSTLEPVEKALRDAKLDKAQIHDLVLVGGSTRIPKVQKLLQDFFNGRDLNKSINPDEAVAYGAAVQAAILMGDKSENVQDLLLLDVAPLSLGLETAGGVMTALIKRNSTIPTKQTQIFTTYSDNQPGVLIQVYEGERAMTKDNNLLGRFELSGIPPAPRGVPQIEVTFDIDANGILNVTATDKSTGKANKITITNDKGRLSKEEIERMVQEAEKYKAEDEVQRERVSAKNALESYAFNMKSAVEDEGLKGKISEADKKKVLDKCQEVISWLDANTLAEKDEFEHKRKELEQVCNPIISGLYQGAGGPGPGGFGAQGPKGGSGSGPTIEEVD

[17] = biological target: T8, Replicative DNA helicase DnaB (Mycobacterium tuberculosis, UniProt P9WMR3); test: DnaB intein splicing inhibitors, dose response, biochemical, cell-free fluorescence (AID 449749); format: functional
T8 sequence (P9WMR3 whole entry): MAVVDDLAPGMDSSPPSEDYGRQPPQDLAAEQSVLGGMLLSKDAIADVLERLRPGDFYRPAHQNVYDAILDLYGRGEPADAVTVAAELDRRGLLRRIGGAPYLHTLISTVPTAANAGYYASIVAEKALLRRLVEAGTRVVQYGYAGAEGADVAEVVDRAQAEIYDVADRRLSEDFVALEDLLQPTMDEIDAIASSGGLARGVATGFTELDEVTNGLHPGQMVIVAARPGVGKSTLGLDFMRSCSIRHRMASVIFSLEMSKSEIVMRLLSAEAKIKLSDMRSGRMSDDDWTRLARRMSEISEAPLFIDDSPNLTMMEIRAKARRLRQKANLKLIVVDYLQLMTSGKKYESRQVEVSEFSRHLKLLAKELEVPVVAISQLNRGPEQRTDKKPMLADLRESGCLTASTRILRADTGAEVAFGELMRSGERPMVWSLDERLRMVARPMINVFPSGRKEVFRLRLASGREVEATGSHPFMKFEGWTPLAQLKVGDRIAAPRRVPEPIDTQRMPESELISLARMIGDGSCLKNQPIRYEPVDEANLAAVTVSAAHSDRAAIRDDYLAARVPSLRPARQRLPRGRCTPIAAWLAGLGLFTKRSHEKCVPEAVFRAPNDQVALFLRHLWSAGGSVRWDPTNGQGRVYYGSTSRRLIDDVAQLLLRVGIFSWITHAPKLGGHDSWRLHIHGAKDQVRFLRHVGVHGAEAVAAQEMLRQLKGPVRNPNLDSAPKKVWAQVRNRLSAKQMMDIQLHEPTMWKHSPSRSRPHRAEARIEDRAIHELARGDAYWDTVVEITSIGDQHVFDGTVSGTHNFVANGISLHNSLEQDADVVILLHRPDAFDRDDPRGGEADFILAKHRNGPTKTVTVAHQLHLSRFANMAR

[18] = biological target: T9, Protein RecA (Mycobacterium tuberculosis, UniProt P9WHJ3); test: Fluorescence Cell-Free Homogeneous Dose Retest to Identify Inhibitors of RecA-Intein Splicing Activity. [Related pubchem assays (depositor defined):AID2097, AID2223, AID489010, AID492950]; format: functional
T9 sequence (P9WHJ3 whole entry): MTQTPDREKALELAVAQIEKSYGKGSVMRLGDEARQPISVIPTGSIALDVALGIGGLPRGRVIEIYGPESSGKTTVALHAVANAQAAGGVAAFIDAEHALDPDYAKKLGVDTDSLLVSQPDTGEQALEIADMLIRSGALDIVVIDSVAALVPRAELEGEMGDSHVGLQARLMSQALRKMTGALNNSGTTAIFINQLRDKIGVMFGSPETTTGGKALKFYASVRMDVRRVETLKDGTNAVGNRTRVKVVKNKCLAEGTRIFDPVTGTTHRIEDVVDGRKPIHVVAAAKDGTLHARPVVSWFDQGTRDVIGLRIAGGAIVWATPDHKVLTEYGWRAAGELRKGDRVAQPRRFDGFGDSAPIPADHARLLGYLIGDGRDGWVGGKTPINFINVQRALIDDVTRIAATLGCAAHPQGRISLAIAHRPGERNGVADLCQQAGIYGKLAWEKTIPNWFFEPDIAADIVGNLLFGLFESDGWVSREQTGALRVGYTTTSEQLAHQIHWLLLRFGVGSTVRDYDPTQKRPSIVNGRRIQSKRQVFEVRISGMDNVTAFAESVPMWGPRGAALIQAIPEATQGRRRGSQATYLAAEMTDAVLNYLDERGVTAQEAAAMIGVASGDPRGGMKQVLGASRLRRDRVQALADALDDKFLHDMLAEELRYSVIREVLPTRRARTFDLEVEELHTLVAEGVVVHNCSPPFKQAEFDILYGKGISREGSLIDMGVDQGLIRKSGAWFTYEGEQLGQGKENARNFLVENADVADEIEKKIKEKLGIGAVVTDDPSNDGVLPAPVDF

[19] = biological target: T7, Heat shock 70 kDa protein 1A; test: Hsp70 inhibitors, probe displacement, primary screen, biochemical, fluorescence polarization (AID 583)
[20] = biological target: Nonstructural protein 1 (Influenza A virus, UniProt Q194T2); format: functional, Influenza A virus (A/California/07/2009(H1N1))
Sequence of Nonstructural protein 1 (Q194T2 whole entry): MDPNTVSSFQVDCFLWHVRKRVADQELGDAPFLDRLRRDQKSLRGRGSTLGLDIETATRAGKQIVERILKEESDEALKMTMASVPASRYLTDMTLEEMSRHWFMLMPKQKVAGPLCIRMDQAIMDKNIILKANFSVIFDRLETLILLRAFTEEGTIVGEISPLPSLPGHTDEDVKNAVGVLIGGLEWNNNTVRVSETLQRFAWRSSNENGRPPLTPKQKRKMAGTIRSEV

[21] = biological target: Matrix metalloproteinase-14 (Homo sapiens, UniProt P50281); test: Dose Response confirmation of uHTS hits for a small molecule inhibitors of MT1-MMP activation in a fluorescence assay set 1.; format: functional
[22] = biological target: Protein Rev (Human immunodeficiency virus type 1 group M subtype B (isolate WMJ22)(HIV-1), UniProt P05866); test: HIV-1 Rev-RRE RNA binding disruptors, dose response, biochemical, protein-RNA interaction (AID 842); parameters: species or system Human immunodeficiency virus 1
[23] = biological target: Wee1-like protein kinase (Homo sapiens, UniProt P30291); test: G2/M cell cycle arrest in HeLa, late-stage follow-up, mechanism study for Wee1 degradation inhibitor project, FACS, panel member Wee1 Degradation (AID 2088)
Sequence of Wee1-like protein kinase (P30291 whole entry): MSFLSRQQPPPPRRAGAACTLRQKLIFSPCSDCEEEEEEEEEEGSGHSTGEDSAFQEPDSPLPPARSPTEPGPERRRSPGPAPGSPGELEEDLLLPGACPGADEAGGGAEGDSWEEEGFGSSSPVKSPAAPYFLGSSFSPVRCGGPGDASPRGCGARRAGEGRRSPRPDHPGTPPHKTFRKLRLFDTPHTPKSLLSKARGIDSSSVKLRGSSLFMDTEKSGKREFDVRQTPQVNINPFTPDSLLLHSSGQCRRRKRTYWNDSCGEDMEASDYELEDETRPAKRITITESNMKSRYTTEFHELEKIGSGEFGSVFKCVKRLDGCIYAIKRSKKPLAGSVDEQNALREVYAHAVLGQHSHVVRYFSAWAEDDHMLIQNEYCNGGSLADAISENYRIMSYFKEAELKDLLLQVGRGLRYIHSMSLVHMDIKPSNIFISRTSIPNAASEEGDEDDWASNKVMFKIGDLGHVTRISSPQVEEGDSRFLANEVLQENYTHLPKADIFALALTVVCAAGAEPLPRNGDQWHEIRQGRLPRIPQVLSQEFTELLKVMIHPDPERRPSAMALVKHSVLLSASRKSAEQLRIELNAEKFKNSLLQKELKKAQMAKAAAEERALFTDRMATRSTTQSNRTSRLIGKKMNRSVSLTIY

[24] = biological target: G2/mitotic-specific cyclin-B1 (Homo sapiens, UniProt P14635); test: G2/M cell cycle arrest in HeLa, late-stage follow-up, mechanism study for Wee1 degradation inhibitor project, FACS, panel member Cyclin B Degradation (AID 2088)
[25] = biological target: Tumor necrosis factor (Homo sapiens, UniProt P01375); test: TNFa-triggered NF-kB activation inhibitors, SAR follow-up, cell-based, revised (AID 2337); format: functional
[26] = biological target: Nucleotide-binding oligomerization domain-containing protein 1 (Homo sapiens, UniProt Q9Y239); test: NOD1 signaling inhibitors, SAR follow-up, revised (AID 2333); format: functional
Sequence of Nucleotide-binding oligomerization domain-containing protein 1 (Q9Y239 whole entry, the tested form may be a part): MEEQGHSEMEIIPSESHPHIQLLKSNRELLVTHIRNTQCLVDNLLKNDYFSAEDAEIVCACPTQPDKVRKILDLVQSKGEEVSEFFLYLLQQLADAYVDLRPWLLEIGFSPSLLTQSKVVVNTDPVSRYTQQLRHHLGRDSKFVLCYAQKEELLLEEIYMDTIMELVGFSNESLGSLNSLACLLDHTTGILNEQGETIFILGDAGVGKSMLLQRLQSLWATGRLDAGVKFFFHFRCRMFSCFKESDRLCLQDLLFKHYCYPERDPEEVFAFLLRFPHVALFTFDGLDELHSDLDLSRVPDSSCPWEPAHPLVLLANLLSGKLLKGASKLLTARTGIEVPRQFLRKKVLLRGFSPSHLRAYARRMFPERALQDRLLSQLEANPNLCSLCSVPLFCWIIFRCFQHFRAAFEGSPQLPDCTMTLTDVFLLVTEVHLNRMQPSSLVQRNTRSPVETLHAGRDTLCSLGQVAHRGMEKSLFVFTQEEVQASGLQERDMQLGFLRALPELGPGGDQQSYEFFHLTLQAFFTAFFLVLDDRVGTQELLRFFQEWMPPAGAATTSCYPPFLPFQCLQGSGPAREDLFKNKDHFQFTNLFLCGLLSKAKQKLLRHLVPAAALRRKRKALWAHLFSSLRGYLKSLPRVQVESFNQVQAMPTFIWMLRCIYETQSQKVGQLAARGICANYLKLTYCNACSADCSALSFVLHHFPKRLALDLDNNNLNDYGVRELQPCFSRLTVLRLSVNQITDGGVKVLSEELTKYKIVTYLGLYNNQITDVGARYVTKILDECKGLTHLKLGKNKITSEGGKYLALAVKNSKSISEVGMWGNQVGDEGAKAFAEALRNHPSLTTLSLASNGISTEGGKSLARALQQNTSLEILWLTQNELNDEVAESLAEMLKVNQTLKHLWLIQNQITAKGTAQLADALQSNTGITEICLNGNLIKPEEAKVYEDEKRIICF

[27] = biological target: Nucleotide-binding oligomerization domain-containing protein 2 (Homo sapiens, UniProt Q9HC29); test: PubChem AID 2334; format: functional
[28] = tested on: HEK293; test: cells; settings: Homo sapiens;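 further: cells exposed to compound for 14 hours overnight before viability readout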

T1 sequence (Q99705 whole entry): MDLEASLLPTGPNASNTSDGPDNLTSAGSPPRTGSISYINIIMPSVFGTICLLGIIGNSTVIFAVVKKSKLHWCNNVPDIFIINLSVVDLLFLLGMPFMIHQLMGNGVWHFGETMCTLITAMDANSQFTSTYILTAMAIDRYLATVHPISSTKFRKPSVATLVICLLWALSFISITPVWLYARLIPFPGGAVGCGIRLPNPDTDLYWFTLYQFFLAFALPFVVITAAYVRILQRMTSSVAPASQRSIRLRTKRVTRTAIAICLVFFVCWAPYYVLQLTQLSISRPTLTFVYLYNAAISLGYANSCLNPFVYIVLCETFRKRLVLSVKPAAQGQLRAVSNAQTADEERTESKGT

For `O=C(Oc1ccc(C(=S)N2CCOCC2)cc1)c1ccccc1`, the IC50 [1] was > 14.6 µM (not active) and the IC50 [2] was > 43.8 µM (not active).
With `O=C(O)c1cccc2c1NC(c1ccc(Cl)cc1)C1CC=CC21` (stereo not drawn) the Ki [3] was 119 µM (inactive).
In the case of `COc1cc(NS(=O)(=O)c2ccc(Nc3nc(-c4ccccn4)cs3)cc2)nc(OC)n1`, the AC50 [4] is reported as 88.3 µM (active), the IC50 [5] is reported as 3.63 µM (active) and the IC50 [6] is reported as > 67 µM (not active).
For `CC1CCN(C(C(=O)Nc2ccc3c(c2)OCO3)c2ccccc2)CC1` (stereo not drawn), the IC50 [7] was 0.976 µM (active).
With `COc1ccc(Oc2c(Cl)cnn(-c3cc(Cl)cc(Cl)c3)c2=O)cc1` the IC50 [8] was 1.1 µM (active).
For `CCc1ccc(/N=C2/NC(=O)/C(=C/c3ccc(OCC(=O)O)c(Cl)c3)S2)cc1`, the IC50 [9] was 2.89 µM (active), the IC50 [10] was 65.7 µM (active) and the IC50 [11] was 11.2 µM (active). The IC50 [12] was 7.69 µM (active), the IC50 [13] was 21.7 µM (active) and the IC50 [14] was 4.83 µM (active). For the same molecule, the IC50 [15] was 2.71 µM (active).
With `CC(=O)N1CCC2(CC1)C(C#N)=C(N)Oc1[nH]nc(C)c12` the IC50 [16] was > 100 µM (not active), the AC50 [17] was 8.21 µM (active) and the EC50 [18] was 1.36 µM (active). The IC50 [19] was > 100 µM (not active).
For `CC1=NN(c2ccccc2)C(=O)C1N=Nc1ccc(N)cc1` (stereo not drawn), the IC50 [20] was 10.5 µM (active), the IC50 [21] was > 80 µM (inactive) and the IC50 [22] was > 79.4 µM (not active).
With `Cc1cc(O)nc(-n2nc(C)cc2NC(=O)c2ccccc2Br)n1` the EC50 [23] was > 49.7 µM (inactive) and the EC50 [24] was > 49.7 µM (inactive).
In the case of `COc1ccc(-c2cc(C(=O)NC3CCCc4c3cnn4-c3ccccc3F)n(C)n2)cc1` (stereo not drawn), the IC50 [25] is reported as 1.36 µM (active), the IC50 [26] is reported as 0.99 µM (active) and the IC50 [27] is reported as 1.34 µM (active). For the same molecule, the IC50 [28] was > 20 µM (inactive).
